Assays:
[1] = tested on: βIII-tubulin expression in human motor neurons; assay: βIII-tubulin immunostaining (differentiation-related protein expression); type: cell-based; conditions: 48 h
Procedure: Neurons were cultured as 40,000 cells per well and Schwann cells 3,000 cells per. Cells were treated after 24 hours. The number of cells per well depended on the growth phenotype, proliferative capacity, etc.
NeuroBlast was pre-warmed to 37° C. Cells were thawed in a 37° C. water bath for no longer than 2 min. 1 ml of media was gently added drop-wise. Cells were resuspended and transferred to a 15 ml tube containing 9 ml of medium. Cells were centrifuged at 200 relative centrifugal force (RCF) for 5 min. Pellet was resuspended in 5 ml of medium and cells were counted with the Cellometer. 40,000 cells per well were seeded in previously coated 96-well plates. Cells were incubated at 37° C. with 5% CO2. Cells were allowed to settle for 24 hours before drug treatment. […]
LMW-DS was prepared in the culture media of choice for each cell line and added to the respective wells in the doses 0.01 and 0.1 mg/ml. For cell survival assays cells were analyzed after 24 and 48 hours in eight identical wells/dose/time point. Differentiation and protein expression assay was analyzed after 48 hours, also in octuplicates. […]
The Acumen cytometer allows the direct cytometric analysis of attached cells without prior detachment. […] The protein content of the cells can also be directly measured and expressed as either ‘total protein content’ or ‘mean protein content’.

[2] = tested on: /Mphg system [HUVEC and M1 macrophages+Zymosan (TLR2 ligand)]; assay: BioMAP /Mphg system; type: cell-based, Human
Excerpt: In this study LMW-DS was characterized by profiling in the BioMAP® Diversity PLUS panel. The BioMAP® panel consists of human primary cell-based systems designed to model different aspects of the human body in an in vitro format. The 12 systems in the BioMAP® Diversity PLUS panel (Table 32) allow test agent characterization in an unbiased way across a broad set of systems modeling various human disease states. The BioMA®P systems are constructed with one or more primary cell types from healthy human donors, with stimuli, such as cytokines or growth factors, added to capture relevant signaling networks that naturally occur in human tissue or pathological conditions. Vascular biology is modeled in both a Th1 (3C system) and a Th2 (4H system) inflammatory environment, as well as in a Th1 inflammatory state specific to arterial smooth muscle cells (CASM3C system). […]
Systems are derived from either single cell types or co-culture systems. […] Test agents prepared in either DMSO (small molecules; final concentration 0.1%) or PBS (biologics) are added at the indicated concentrations 1-hr before stimulation, and remain in culture for 24-hrs or as otherwise indicated (48-hrs, MyoF system; 72-hrs, BT system (soluble readouts); 168-hrs, BT system (secreted IgG)). […]

“low molecular weight dextran sulfate [LMW-DS]” was tested, and the βIII-tubulin expression ([1]; 0.01 and 0.1 mg/ml) was “significantly increased”, the “size of the majority of βIII-tubulin positive cells vs control cultures” value [1] was “smaller” and the Increased biomarker activity [2] was “IL-8, CD69”.
